The nature of series [1]: CACO-2-based cell-permeation and efflux. Format: in vitro ADME. As to conditions: human, 2 µM compound, pH 7.40; for Papp A→B at 2 h, 2 µM: Caco-2, pH 7.4, A2B; for Papp B→A at 2 h, 2 µM: Caco-2, pH 7.4, B2A. Here is the method:
CACO-2 (ATCC, Manassas, VA, USA) monolayers on polyethylene membranes in 96-well insert plates were incubated for 2 hours in 5% C02, 37°C with 2 µM compound tested bidirectionally in duplicate using HBSS with 10 mM HEPES at pH 7.40 ±0.05 as transport buffer. Final DMSO Concentrations were adjusted to less than 1%. All samples were mixed with acetonitrile containing internal standard and centrifuged at 3220 x g for 10 minutes. Subsequently, 100 µL supernatant solution was diluted with 100 µL distilled water for LC/MS/MS analysis. Lucifer yellow rejection assays were applied after the transport assay to ensure CACO-2 cell monolayer integrity.
The apparent permeability coefficient Papp (cm/s) was calculated using the equation: Papp = (dCr/dt) × Vr/(A×CO) [formula] where dCr/dt is the cumulative concentration of compound in the receiver chamber as a function of time (µM/s); Vr is the solution volume in the receiver chamber (0.075 mL on the apical side, 0.25 mL on the basolateral side); A is the surface area for the transport, i.e., 0.0804 cm^2 or the area of the monolayer; CO is the initial concentration in the donor chamber (µM).
For orientation: Caco-2 monolayers are a common model of the intestinal barrier.

The nature of series [2]: Microsomal stability, human (HLM). The format is in vitro ADME. Conditions: liver microsomes, 0.5 mg protein/mL, 1 µM test compound. Here is the method:
In order to assess metabolic stability of test compounds, commercially acquired CD-1 mouse liver microsome preparations were incubated in 100 µL at a final concentration of 0.5 mg protein/mL, 1 µM test compound, 0.99% methanol and 0.01% DMSO, after a 10 minute pre-incubation at 37°C and addition of 0.1 volumes 10 U/mL NADPH in 10 mM MgCl2. Reactions were stopped by addition of 300 µL cold acetonitrile containing internal standards at t = 0, 5, 10, 20, 30, and 60 minutes. Samples were submitted to LC-MS/MS analysis subsequently and the slope of linear regression of time versus In(% Remaining concentration) was derived to calculate t½ as t½= In(2) /(-Slope). Then Clint(mic) and Clint(liver) were calculated as follows: CLint(mk) = (0.693)/(In vitro T1/2) · (1)/(mg/mL microsomal protein in reaction system) [formula] CLint(liver) = CLint(mic) · (mg microsomes)/(g liver) · (g liver)/(kg body weight) [formula]
The same procedure was performed for human microsomes, SD rat microsomes and (beagle) dog microsomes.
Where 45 mg microsomal protein/g liver and 20 g liver/kg human bodyweight were used as standardized parameters for human microsomes.

A further series is described as follows: Kinetic solubility. Format: physicochemical. Conditions: aqueous buffer; 50 mM phosphate buffer (pH 7.4), 24 hours at room temperature. Here is the method:
To assess the solubility of test compounds 10 µL of a 10 mM solution in DMSO was added to the lower chamber of a whatman miniuniprep (PTFE Filter Media with Polypropylene Housing) vial. 490 µL of 50 mM phosphate buffer (pH 7.4) was added to the lower chamber, the samples were vortexed for at least two minutes and then shaken on a shaker for 24 hours at room temperature at the speed of 880 rpm. The samples were then centrifuged for 20 minutes at 4000 rpm, compressed and the filtrates were injected into a HPLC-UV and LC-MS/MS system to calculate the concentration compared to the standard curve using a ACQUITY UPLC BEH C18 1.7 µm 2.1 * 50 mm column.

The target of a further series is T1, human isoQC (Homo sapiens, UniProt Q9NXS2).
T1 construct: The Golgi luminal, enzymatically active region of human isoQC (S53-L382; see, e.g., Huang et al., 2011); GST (with enterokinase site) (N, cleaved yes); made in house; host or cells: E. coli
T1 sequence (Q9NXS2 53-382): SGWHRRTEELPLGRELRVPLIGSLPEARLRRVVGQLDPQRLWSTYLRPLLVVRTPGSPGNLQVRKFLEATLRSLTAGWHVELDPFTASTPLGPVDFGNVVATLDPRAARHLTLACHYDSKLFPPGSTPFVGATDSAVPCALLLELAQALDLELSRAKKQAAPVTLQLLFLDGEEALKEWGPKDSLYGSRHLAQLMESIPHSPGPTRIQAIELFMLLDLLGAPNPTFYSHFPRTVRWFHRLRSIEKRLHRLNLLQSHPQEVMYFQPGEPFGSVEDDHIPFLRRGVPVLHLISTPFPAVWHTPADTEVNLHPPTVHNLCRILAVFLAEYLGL
Kind of series: Assay 1 - isoQC potency, fluorescent enzymatic assay (H-Gln-AMC, coupled pGAPase detection). Format: biochemical. Conditions: recombinant isoQC, 1 hour at 37°C. From the text:
The Golgi luminal, enzymatically active region of human isoQC (S53-L382; see, e.g., Huang et al., 2011) was obtained by expression in E. coli of an N-terminally GST Enterokinase and C-terminally 6xHis tagged construct in the pET41(+) vector and subsequent purification using Ni-NTA IMAC. Enterokinase digestion ensued, followed by another Ni-NTA IMAC purification, Superdex75 based size exclusion and finally a spin concentration using a 10 kDa molecular weight cutoff. The final protein is formulated in 50 mM Tris-HCl, 150 mM NaCl, 50% Glycerol, pH 7.8.
Pyroglutamylation was measured by conversion of glutamine-4-amino-7-methylcoumarine (H-Gln-AMC, Bachem) to pyroglutamyl-AMC, which is subsequently a specific substrate for pyroglutamylaminopeptidase (pGAPase, Qiagen), releasing free AMC which can be fluorescently detected. For a typical inhibition assay, 7.5 µL aliquots of threefold dilutions of test compound in 50mM Tris pH8 buffer were plated in 384-well plates. 15 µL 20 µM hGln-AMC (diluted from a 40 mM stock dissolved in 25 mM HEPES using 50 mM Tris-HCl 25 pH 8.0) was added to each well. Finally, 7.5 µL, 3 ng/µL recombinant isoQC enzyme was added and the reaction mixture was incubated for 1 hour at 37°C. A 5 minute incubation at 98°C was then performed to denature the isoQC enzyme and stop the reaction.
To detect the amount of pyroglutamyl-AMC formed, a 0.125 U/mL pGAPase enzyme diluted in 50 mM Tris-HCl pH 8.0 containing 10 mM dithiothreitol (DTT) solution was prepared. 25 µL of the pyroglutamylation reaction mixture was transferred into an empty plate and to that, 25 µL of the pGAPase enzyme solution was added. Plates were then incubated for 25 minutes at room temperature before fluorescence readings were taken on an Envision2 plate reader with excitation set at 380 nm and emission at 450 nm. DMSO concentrations during the assay never exceeded 1% and activities were compared to controls containing only the same amount of DMSO and no test compound. Controls were taken along containing pyroglutamylated-AMC (Bachem, dissolved at 10 mM in DMSO) instead of H-Gln-AMC to control for pGAPase inhibition.
IC50 values are calculated using non-linear regression analysis with GraphPad Prism software.

The structures appear in SMILES notation. In brackets after ≈: the same amount, converted by molar mass.

In series [1], `O=C1OCC(c2ccc(C3CCC(F)(F)CC3)cc2)N1c1ccc2[nH]cnc2c1` (single isomer, unassigned) [(19)-ent2] came in with a Papp A→B at 2 h, 2 µM of 3.9 ×10⁻⁶ cm/s and a Papp B→A at 2 h, 2 µM of 23.9 ×10⁻⁶ cm/s. Moreover, in series [2], the CLint scaled at 1 µM was 19.7 mL/min/kg. Further, the solubility at 24 h in the series “Kinetic solubility” is 42 µM (≈ 16.7 µg/mL). In addition, at human isoQC, the IC50 was 35.8 nM.

As to `O=C1OC[C@H](c2ccc(-c3cnn(C(F)(F)F)c3)cc2F)N1c1ccc2[nH]cnc2c1` [Compound (1)], in series [1], the Papp A→B at 2 h, 2 µM came to 2 ×10⁻⁶ cm/s and the Papp B→A at 2 h, 2 µM came to 21.9 ×10⁻⁶ cm/s. In series [2], the CLint scaled at 1 µM was under 8.6 mL/min/kg. In “Kinetic solubility”, this molecule had a solubility at 24 h of 121 µM (≈ 52.2 µg/mL). Besides, the IC50 on human isoQC was 1.7 nM.

In series [1], `O=C1OCC(c2ccc(N3CCCC3)cc2)N1c1ccc2[nH]cnc2c1` (single isomer, unassigned) [(18)-ent2] came in with a Papp A→B at 2 h, 2 µM of 2.8 ×10⁻⁶ cm/s and a Papp B→A at 2 h, 2 µM of 18.8 ×10⁻⁶ cm/s. This molecule also showed a CLint scaled at 1 µM in series [2] of 73.8 mL/min/kg. The molecule further gave a solubility at 24 h in “Kinetic solubility” of 60 µM (≈ 20.9 µg/mL). Further, the IC50 on human isoQC came out at 23.9 nM.

In general, Papp A→B refers to the apparent permeability from the apical to the basolateral side of a cell layer. Read a low Papp A→B as poor permeation. In general, Papp B→A refers to the apparent permeability from the basolateral to the apical side of a cell layer. In general, CLint scaled refers to the rate of metabolic loss divided by the concentration. In general, solubility refers to how much of the substance goes into solution per volume. A higher solubility goes with a readily soluble substance. As a reminder, the IC50 is the concentration that gives 50% inhibition.

The values are drawn from patent publication EP4455142A1, “NOVEL INHIBITOR OF QPCTL AND/OR QC” (Scenic Immunology B.V., priority 2023, dated 2024).
